Data reported in patent publication US10640534B2 (Agios Pharmaceuticals, Inc., priority 2012, dated 2020).

Each compound was assayed on U87MG cells (assay: Cellular assay, inhibition of 2-HG production in U87MG cells). Conditions: Homo sapiens, U-87 MG, 48 h.
Format: cell-based
Summary of the method: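 HT1080 or U87MG cells (U87MG kept with 500 ug/mL G418) seeded at 5000 cells/well and treated with compound at 0.2% final DMSO. Incubated 48 h at 37 °C. 2-HG inhibition determined by LC-MS. Viability read by CellTiter-Glo luminescence at 72 h post-dose.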

Row | SMILES | IC50 [nM]
1 | N#Cc1cc(C#N)cc(N(C(=O)[C@@H]2CCC(=O)N2c2cc(C#N)ccn2)[C@H](C(=O)NC2CC(F)(F)C2)c2ccccc2Cl)c1 [Compound 153, (S)—N—((S)-1-(2-Chlorophenyl)-2-((3,3-difluorocyclobutyl)amino)-2-oxoethyl)-1-(4-cyanopyridin-2-yl)-N-(3,5-dicyanophenyl)-5-oxopyrrolidine-2-carboxamide] | < 100
2 | CNS(=O)(=O)c1cccc(N(C(=O)[C@@H]2CCC(=O)N2c2cc(C#N)ccn2)[C@H](C(=O)NC2CC(F)(F)C2)c2ccccc2Cl)c1 [Compound 157] | < 100
3 | N#Cc1ccnc(N2C(=O)CC[C@H]2C(=O)N(c2cc(F)cc(S(N)(=O)=O)c2)[C@H](C(=O)NC2CC(F)(F)C2)c2ccccc2Cl)c1 [Compound 158, (2S)—N-(1-(2-chlorophenyl)-2-(3,3-difluorocyclobutylamino)-2-oxo-ethyl)-1-(4-cyanopyridin-2-yl)-N-(3-fluoro-5-sulfamoylphenyl)-5-oxopyrrolidine-2-carboxamide] | < 100
4 | CS(=O)(=O)Nc1cccc(N(C(=O)[C@@H]2CCC(=O)N2c2cc(C#N)ccn2)[C@H](C(=O)NC2CC(F)(F)C2)c2ccccc2Cl)c1 [Compound 159, (S)—N—((S)-1-(2-Chlorophenyl)-2-(3,3-difluorocyclobutylamino)-2-oxoethyl)-1-(4-cyanopyridin-2-yl)-N-(3-(methylsulfonamido)phenyl)-5-oxopyrrolidine-2-carboxamide] | < 100
5 | N#Cc1cnc(N2C(=O)CC[C@H]2C(=O)N(c2cc(F)cc(F)c2)[C@H](C(=O)NC2CC(F)(F)C2)c2ccccc2Cl)o1 [Compound 162, (S)—N—((S)-1-(2-chlorophenyl)-2-((3,3-difluorocyclobutyl)amino)-2-oxoethyl)-1-(5-cyanooxazol-2-yl)-N-(3,5-difluorophenyl)-5-oxopyrrolidine-2-carboxamide] | < 100
6 | N#Cc1cccc(N(C(=O)[C@@H]2CCC(=O)N2c2nccc(C#N)n2)[C@H](C(=O)NC2CC(F)(F)C2)c2ccccc2Cl)c1 [Compound 167, (S)—N—((S)-1-(2-Chlorophenyl)-2-((3,3-difluorocyclobutyl)amino)-2-oxoethyl)-N-(3-cyanophenyl)-1-(4-cyanopyrimidin-2-yl)-5-oxopyrrolidine-2-carboxamide] | < 100
7 | CS(=O)(=O)c1cc(F)cc(N(C(=O)[C@@H]2CCC(=O)N2c2nccc(C#N)n2)[C@H](C(=O)NC2CCC(F)(F)CC2)c2ccccc2Cl)c1 [Compound 168, (S)—N—((S)-1-(2-Chlorophenyl)-2-((4,4-difluorocyclohexyl)amino)-2-oxoethyl)-1-(4-cyanopyrimidin-2-yl)-N-(3-fluoro-5-(methylsulfonyl)phenyl)-5-oxopyrrolidine-2-carboxamide] | < 100
8 | N#Cc1cc(F)cc(N(C(=O)[C@@H]2C[C@@H](O)C(=O)N2c2cc(C#N)ccn2)C(C(=O)NC2CC(F)(F)C2)c2ccccc2Cl)c1 (stereo partly drawn) [Compound 169, (2S,4R)—N-(1-(2-Chlorophenyl)-2-(3,3-difluorocyclobutylamino)-2-oxoethyl)-N-(3-cyano-5-fluorophenyl)-1-(4-cyanopyridin-2-yl)-4-hydroxy-5-oxopyrrolidine-2-carboxamide] | < 100
9 | N#Cc1ccnc(N2C(=O)[C@@H](O)C[C@H]2C(=O)N(c2cccc(F)c2)[C@H](C(=O)NC2CCC(F)(F)CC2)c2ccccc2Cl)c1 [Compound 172, (2S,4S)—N—((S)-1-(2-Chlorophenyl)-2-((4,4-difluorocyclohexyl)amino)-2-oxoethyl)-1-(4-cyano-pyridin-2-yl)-N-(3-fluorophenyl)-4-hydroxy-5-oxopyrrolidine-2-carboxamide] | < 100
10 | N#Cc1ccnc(N2C(=O)CC[C@H]2C(=O)N(c2cccc(C3CC3)c2)[C@H](C(=O)NC2CC(F)(F)C2)c2ccccc2Cl)c1 [Compound 173, (S)—N—((S)-1-(2-Chlorophenyl)-2-((3,3-difluorocyclobutyl)amino)-2-oxoethyl)-1-(4-cyanopyridin-2-yl)-N-(3-cyclopropylphenyl)-5-oxopyrrolidine-2-carboxamide] | < 100
11 | N#Cc1ccnc(N2C(=O)CC[C@H]2C(=O)N(c2cncc(F)c2)[C@H](C(=O)NC2CC(F)(F)C2)c2ccccc2Cl)c1 [Compound 176, (S)—N—((S)-1-(2-Chlorophenyl)-2-(3,3-difluorocyclobutylamino)-2-oxoethyl)-1-(4-cyanopyridin-2-yl)-N-(5-fluoropyridin-3-yl)-5-oxopyrrolidine-2-carboxamide] | < 100
12 | N#Cc1cc(F)cc(N(C(=O)[C@@H]2CCC(=O)N2c2cc(C#N)ccn2)[C@H](C(=O)NC2CC(F)(F)C2)c2ccccc2Cl)c1 [Compound 177, (S)—N—((S)-1-(2-Chlorophenyl)-2-(3,3-difluorocyclobutylamino)-2-oxoethyl)-N-(3-cyano-5-fluorophenyl)-1-(4-cyanopyridin-2-yl)-5-oxopyrrolidine-2-carboxamide] | < 100

Second part, the compound after the results:

Row | IC50 [nM] | SMILES
13 | < 100 | N#Cc1ccnc(N2C(=O)OCC[C@H]2C(=O)N(c2cc(F)cc(F)c2)[C@H](C(=O)NC2CC(F)(F)C2)c2ccccc2Cl)n1 [Compound 154, (S)—N—((S)-1-(2-Chlorophenyl)-2-((3,3-difluorocyclobutyl)amino)-2-oxoethyl)-3-(4-cyanopyrimidin-2-yl)-N-(3,5-difluorophenyl)-2-oxo-1,3-oxazinane-4-carboxamide]
14 | < 100 | CN(C)S(=O)(=O)c1cccc(N(C(=O)[C@@H]2CCC(=O)N2c2cc(C#N)ccn2)[C@H](C(=O)NC2CC(F)(F)C2)c2ccccc2Cl)c1 [Compound 156, (S)—N—((S)-1-(2-Chlorophenyl)-2-(3,3-difluorocyclobutylamino)-2-oxoethyl)-1-(4-cyanopyridin-2-yl)-N-(3-(N,N-dimethylsulfamoyl)phenyl)-5-oxopyrrolidine-2-carboxamide]
15 | < 100 | N#Cc1ccnc(N2C(=O)CC[C@H]2C(=O)N(c2cccc(CCO)c2)[C@H](C(=O)NC2CC(F)(F)C2)c2ccccc2Cl)c1 [Compound 160, (S)—N—((S)-1-(2-Chlorophenyl)-2-((3,3-difluorocyclobutyl)amino)-2-oxoethyl)-1-(4-cyanopyridin-2-yl)-N-(3-(2-hydroxyethyl)phenyl)-5-oxopyrrolidine-2-carboxamide]
16 | < 100 | CN(C)c1cccc(N(C(=O)[C@@H]2CCC(=O)N2c2cc(C#N)ccn2)[C@H](C(=O)NC2CC(F)(F)C2)c2ccccc2Cl)c1 [Compound 161, (S)—N—((S)-1-(2-Chlorophenyl)-2-(3,3-difluorocyclobutylamino)-2-oxoethyl)-1-(4-cyanopyridin-2-yl)-N-(3-(dimethylamino)phenyl)-5-oxopyrrolidine-2-carboxamide]
17 | < 100 | [2H]c1c([2H])c([2H])c([C@@H](C(=O)NC2CC(F)(F)C2)N(C(=O)[C@@H]2CCC(=O)N2c2cc(C#N)ccn2)c2cc(F)cc(F)c2)c(Cl)c1[2H] [Compound 163]
18 | < 100 | COc1cccc(N(C(=O)[C@@H]2CCC(=O)N2c2nccc(C#N)n2)[C@H](C(=O)NC2CC(F)(F)C2)c2ccccc2Cl)c1 [Compound 164, (S)—N—((S)-1-(2-Chlorophenyl)-2-(3,3-difluorocyclobutyl-amino)-2-oxoethyl)-1-(4-cyanopyrimidin-2-yl)-N-(3-methoxyphenyl)-5-oxopyrrolidine-2-carboxamide]
19 | < 100 | N#Cc1cccc(N(C(=O)[C@@H]2CCC(=O)N2c2cc(C#N)ccn2)[C@H](C(=O)NC2CCC(F)(F)CC2)c2ccccc2Cl)c1 [Compound 166, (S)—N—((S)-1-(2-Chlorophenyl)-2-((4,4-difluorocyclohexyl)amino)-2-oxoethyl)-N-(3-cyanophenyl)-1-(4-cyanopyridin-2-yl)-5-oxopyrrolidine-2-carboxamide]
20 | < 100 | N#Cc1cccc(N(C(=O)[C@@H]2C[C@@H](O)C(=O)N2c2cc(C#N)ccn2)C(C(=O)NC2CC(F)(F)C2)c2ccccc2Cl)c1 (stereo partly drawn) [Compound 170, (2S,4R)—N-(1-(2-chlorophenyl)-2-((3,3-difluorocyclobutyl)amino)-2-oxoethyl)-N-(3-cyano-phenyl)-1-(4-cyanopyridin-2-yl)-4-hydroxy-5-oxopyrrolidine-2-carboxamide]
21 | < 100 | N#Cc1ccnc(N2C(=O)[C@@H](O)C[C@H]2C(=O)N(c2cc(F)cc(F)c2)[C@H](C(=O)NC2CC(F)(F)C2)c2ccccc2Cl)c1 [Compound 171, (2S,4S)—N—((S)-1-(2-Chlorophenyl)-2-((3,3-difluorocyclobutyl)amino)-2-oxoethyl)-1-(4-cyano-pyridin-2-yl)-N-(3,5-difluorophenyl)-4-hydroxy-5-oxopyrrolidine-2-carboxamide]
22 | < 100 | N#Cc1ccnc(N2C(=O)[C@@H](O)C[C@H]2C(=O)N(c2cc(F)cc(F)c2)[C@H](C(=O)NC2CCC(F)(F)CC2)c2ccccc2Cl)c1 [Compound 174, (2S,4S)—N—((S)-1-(2-Chlorophenyl)-2-((4,4-difluorocyclohexyl)amino)-2-oxoethyl)-1-(4-cyanopyridin-2-yl)-N-(3,5-difluorophenyl)-4-hydroxy-5-oxopyrrolidine-2-carboxamide]
23 | < 100 | N#Cc1ccnc(N2C(=O)CC[C@H]2C(=O)N(c2ccc3[nH]ncc3c2)[C@H](C(=O)NC2CC(F)(F)C2)c2ccccc2Cl)c1 [Compound 175, (S)—N—((S)-1-(2-Chlorophenyl)-2-((3,3-difluorocyclobutyl)amino)-2-oxoethyl)-1-(4-cyanopyridin-2-yl)-N-(1H-indazol-5-yl)-5-oxopyrrolidine-2-carboxamide]
24 | < 100 | CC(C)(O)c1cccc(N(C(=O)[C@@H]2CCC(=O)N2c2cc(C#N)ccn2)[C@H](C(=O)NC2CC(F)(F)C2)c2ccccc2Cl)c1 [Compound 179, (S)—N—((S)-1-(2C)-2-((3,3-difluorocyclobutyl)amino)-2-oxoethyl)-1-(4-cyanopyridin-2-yl)-N-(3-(2-hydroxypropan-2-yl)phenyl)-5-oxopyrrolidine-2-carboxamide]
25 | < 100 | N#Cc1ccnc(N2C(=O)CC[C@H]2C(=O)N(c2cccc(OC(F)(F)F)c2)C(C(=O)NC2CC(F)(F)C2)c2ccccc2Cl)n1 (stereo partly drawn) [Compound 180, (2S)—N-(1-(2-Chlorophenyl)-2-((3,3-difluorocyclobutyl)amino)-2-oxoethyl)-1-(4-cyanopyrimidin-2-yl)-5-oxo-N-(3-(trifluoromethoxy)phenyl)pyrrolidine-2-carboxamide]
